For orientation: Kd means the equilibrium constant for the complex coming apart. What is called EC50 is the concentration giving half of the maximal effect. Higher therefore signals lower potency in that assay.

The source of these data is PMC12650144, “Interactive Role of the DHPR β1a SH3 Domain in Skeletal Muscle Excitation–Contraction Coupling” (Biomolecules, 2025).

Where no end group is shown, it is not given here.

The target in experiment [1] is T1, DHPR β1a subunit (full-length, β1a-FL) (Mus musculus, UniProt Q8R3Z5).
T1 construct: full-length β1a (β1a-FL); polyhistidine-tagged ubiquitin (N, cleaved yes); made in house; host or cells: Escherichia coli BL21
Description: Tryptophan fluorescence quenching binding to full-length β1a. To be noted: excitation 280 nm, emission 340 nm, full-length β1a titrated with loop/peptide, nonlinear regression, read-out: Binding affinity to β1a subunit (Kd). The method, then: (§1) The mouse β1a and β2a subunits (NCBI reference sequences—NM_031173 and NM_023116), the β1a-SH3 domain (β1a residues V101-P272), and the α1s II-III loop (NCBI reference sequence—X05921, residues E666-L791) were amplified by PCR. Each PCR product was cloned in-frame downstream of a polyhistidine-tagged ubiquitin sequence in the plasmid pHUE [27]. The plasmids were transferred into Escherichia coli BL21, and expression of fusion protein was induced by addition of 0.1 mM IPTG (isopropyl β-D-1thiogalactoside) to the culture medium. The His-tagged proteins were purified by chromatography on Ni-agarose. Ubiquitin was removed from the N-terminal end of the recombinant proteins by digestion with a His-tagged ubiquitin-dependant protease. The recombinant β-subunit proteins and the II-III loop were further purified by preparative electrophoresis using a Bio-Rad model 491 prep cell. The final samples were dialysed into a buffer containing 50 mM sodium phosphate pH 8 and 300 mM NaCl (buffer A) and stored at −70 °C.
(§2) Equilibrium dissociation constants for β1a and β2a subunit and β1a-SH3 domain binding to the α1s II-III loop and its peptides were determined with a Perkin-Elmer LS 50B6 Spectrofluorimeter. Changes in the intrinsic fluorescence of the tryptophan residues of the β1a subunit or the β1a-SH3 domain was monitored while titrating the α1s II-III loop or its peptides. Excitation was at 280 nm, and fluorescence emission was monitored at 340 nm. Data was corrected for dilution effects and for intrinsic fluorescence of the II-III loop or its peptides and fitted with nonlinear regression using GraphPad Prism software (6.0), as previously described.

Experiment [2] deals with T2, β1a-SH3 domain (residues 101–272) (Mus musculus, UniProt Q8R3Z5).
T2 construct: The β1a SH3 protein (residues V101-P272) was purified by IMAC; polyhistidine-tagged ubiquitin (N, cleaved yes); made in house; host or cells: Escherichia coli BL21
Description: Tryptophan fluorescence quenching binding to β1a SH3 domain. To be noted: excitation 280 nm, emission 340 nm, refolded β1a-SH3, read-out: Binding affinity to β1a–SH3 domain (residues 101–272) (Kd). The protocol: as §1
The β1a SH3 protein (residues V101-P272) was purified by IMAC (immobilized metal affinity chromatography) under denaturing conditions (6M guanidinium HCl) using Ni-NTA resin. The purity of the protein was assessed by SDS page gels (Supplementary Figure S1). The purified protein was then refolded by dialysing against buffer A, and the folded structure was checked by circular dichroism (Supplementary Figure S2). The purified and refolded protein was stored (−70 °C) at concentrations of ~1μM. It was not possible to directly assess the aggregation state of the β1a SH3 protein construct at 1μM as the SEC UV peak absorbance was below detectable levels.
as §2

For experiment [3], the target named is α1s C (α1s II-III loop C region peptide, residues 720–765). Description: Fluorescence binding of β isoforms and chimeras to α1s C peptide. To be noted: β construct titrated with α1s C peptide. The protocol:
as §1, with “The recombinant β-subunit proteins and the II-III loop were further purified by preparative electrophoresis using a Bio-Rad model 491 prep cell. The final samples were dialysed into a buffer containing 50 mM sodium phosphate pH 8 and 300 mM NaCl (buffer A) and stored at −70 °C.” left out
as §2

Experiment [4] concerns L-type Ca2+ current (DHPR channel) in β-null myotubes. Description: L-type Ca2+ current, whole-cell patch clamp in cultured myotubes. Type of experiment: cell-based, mouse. To be noted: mean ± SE. The protocol: All animal procedures were carried out in accordance with the guidelines of Harvard Medical Area Standing Committee on Animals under experimental protocol number 2589, approved on 01 Sept 2014. Primary myoblasts from DHPRβ1a-null mouse skeletal muscles were isolated from the hindlimb of neonatal mice, as described elsewhere. Stably transduced cell lines were then obtained by infection of primary β-null myoblasts with virion particles carrying the β1a genes at a multiplicity of infection (MOI) of 0.5 and then selected with […] Puromycin for 2 weeks, as described previously. Cells expressing mouse Wtβ1a or β1a-loop chimera subunit were then grown and differentiated in 96-well plates, as described previously. Calcium imaging was performed 5–6 days after differentiation in myotubes loaded with 5μM Fura-2-AM or 2μM Fluo-4 (Molecular Probes) in imaging buffer (125 mM NaCl, 5 mM KCl, 2 mM CaCl2, 1.2 mM MgSO4, 6 mM glucose, and 25 mM HEPES-Tris, pH 7.4). Cell membrane depolarization was performed by 5s of perfusion with 5–7 volumes of imaging buffer containing increasing concentrations of KCl. To preserve osmolarity of the depolarization buffer, the increased K concentration was compensated with an equivalent reduction in total NaCl concentration. Sarcoplasmic reticulum Ca^2+ content of Fura-2-AM-loaded cultured myotubes was estimated from the peak fluorescent amplitude of the Ca^2+ transient induced by 40 mM caffeine stimulation in the presence of 1μM thapsigargin (Tg) and in the absence of extracellular Ca^2+ [34, 35]. Extracellular Ca^2+ entry at rest was estimated from the rate of dye quench by Mn^2+ entry in myotubes loaded with 5μM Fura-2-AM in the presence and in the absence of 10μM KB-R7943 (glycerol, 2-(2-(4-(4-nitrobenzyloxy) phenyl)ethyl)-isothiourea methane sulfonate), as described previously. Cells were then imaged at 360 nm (5 nm) with an intensified 10-bit digital CCD camera (XR-Mega-10, Stanford Photonics, Stanford, CA, USA) using aDG4 multiwavelength light source. Fura-2 images were acquired with a 40 objective (Olympus, UApo/340), and fluorescent emission at 510 nm was then captured from regions of interest within each myotube at 33 frames/s using Piper-controlled acquisition software (Stanford Photonics) and is expressed as the ratio of signal collected at alternating 340 nm/380 nm excitation wavelengths. […] Fluo-4 fluorescent images were acquired using a 60 objective, and emission at 510 nm was then collected from regions of interest from individual cells excited at 490 nm and is expressed as arbitrary fluorescent units.
The macroscopic Ca^2+ current was determined using the same equipment and protocols previously described (PMID: 29212769). […]
(In general: The patch-clamp technique gives a direct electrical read-out from membranes.)

Experiment [5] relates to DHPRβ1a-null myotubes expressing β1a constructs. Description: Depolarization (KCl)-induced Ca2+ release in Fura-2-loaded myotubes. Type of experiment: cell-based, mouse. To be noted: Fura-2-AM-loaded myotubes expressing the construct; sigmoidal dose–response fit. The protocol:
All animal procedures were carried out in accordance with the guidelines of Harvard Medical Area Standing Committee on Animals under experimental protocol number 2589, approved on 01 Sept 2014. Primary myoblasts from DHPRβ1a-null mouse skeletal muscles were isolated from the hindlimb of neonatal mice, as described elsewhere. Stably transduced cell lines were then obtained by infection of primary β-null myoblasts with virion particles carrying the β1a genes at a multiplicity of infection (MOI) of 0.5 and then selected with […] Puromycin for 2 weeks, as described previously. Cells expressing mouse Wtβ1a or β1a-loop chimera subunit were then grown and differentiated in 96-well plates, as described previously. […] Fura-2 images were acquired with a 40 objective (Olympus, UApo/340), and fluorescent emission at 510 nm was then captured from regions of interest within each myotube at 33 frames/s using Piper-controlled acquisition software (Stanford Photonics) and is expressed as the ratio of signal collected at alternating 340 nm/380 nm excitation wavelengths. […] Fluo-4 fluorescent images were acquired using a 60 objective, and emission at 510 nm was then collected from regions of interest from individual cells excited at 490 nm and is expressed as arbitrary fluorescent units.

T2 sequence (Q8R3Z5 101-272 isoform Q8R3Z5-4): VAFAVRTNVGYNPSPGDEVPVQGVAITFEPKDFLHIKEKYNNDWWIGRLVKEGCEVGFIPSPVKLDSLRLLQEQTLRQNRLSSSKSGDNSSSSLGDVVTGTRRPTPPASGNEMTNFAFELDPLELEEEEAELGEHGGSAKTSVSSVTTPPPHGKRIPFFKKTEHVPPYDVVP
T1 sequence (Q8R3Z5 1-524 isoform Q8R3Z5-4): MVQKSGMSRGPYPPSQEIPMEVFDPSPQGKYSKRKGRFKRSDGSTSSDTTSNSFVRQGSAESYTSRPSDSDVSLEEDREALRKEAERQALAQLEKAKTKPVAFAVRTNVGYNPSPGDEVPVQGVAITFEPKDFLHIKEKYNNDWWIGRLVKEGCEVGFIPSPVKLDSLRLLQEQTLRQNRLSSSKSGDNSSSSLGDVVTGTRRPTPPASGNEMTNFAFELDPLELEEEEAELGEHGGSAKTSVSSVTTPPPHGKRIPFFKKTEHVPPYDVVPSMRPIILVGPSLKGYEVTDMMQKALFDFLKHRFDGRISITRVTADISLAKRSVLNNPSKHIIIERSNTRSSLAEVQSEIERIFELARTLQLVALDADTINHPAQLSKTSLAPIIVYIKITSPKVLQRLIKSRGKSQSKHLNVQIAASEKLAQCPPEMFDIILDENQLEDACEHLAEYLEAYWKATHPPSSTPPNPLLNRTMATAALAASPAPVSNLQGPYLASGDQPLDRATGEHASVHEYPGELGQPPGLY

On to “DEPEIPVSPRPRPLAEL [α1s C binding peptide 2 (sP2)]”, for which the results for the Kd in experiment [1] and in experiment [2] were 5.4 ± 0.9 µM and 3.8 ± 0.2 µM, respectively.
In the case of “EEPEMPVGPRPRPLSEL [α1c C binding peptide 2 (cP2)]”, the equilibrium dissociation constant (Kd) in experiment [1] was 4.6 ± 0.3 µM; in experiment [2], 3.6 ± 0.3 µM.
In the case of “KDPYPSADFPGDD [α1s C binding peptide 1 (sP1)]”, the results for the Kd in experiment [1] and in experiment [2] were 3.6 ± 0.2 µM and 2.6 ± 0.4 µM, respectively.
As for KDPYPSADFPGED [sP1 D⟶E mutant], the Kd came to 15 ± 2 µM in experiment [1] and 17 ± 1 µM in experiment [2].
For the substance KDPYPSADFTGDD [sP1 P⟶T mutant], the Kd in experiment [1] was determined as 22 ± 2 µM; in experiment [2], 19 ± 2 µM.
Consider KDPYPSADTPGDD [sP1 F⟶T mutant], for which the values for the Kd in experiment [1] and in experiment [2] were 4.6 ± 0.4 µM and 4.6 ± 0.3 µM, respectively.
Consider KDPYPSPDFPGDD [sP1 A⟶P mutant], for which the Kd stood at 4.5 ± 0.3 µM in experiment [1] and 2.3 ± 0.2 µM in experiment [2].
Regarding “KSPYPNPETTGEE [α1c C binding peptide 1 (cP1)]”, the dissociation constant Kd stood at 14 ± 2 µM in experiment [1] and 19 ± 4 µM in experiment [2].
Regarding “LKVDEFESNVNEVKDPYPSADFPGDDEEDEPEIPVSPRPRPLAELQ [α1s II–III loop C region (α1s C)]”, the Kd in experiment [2] was determined as 3.6 ± 0.6 µM.
In experiment [3], “β1a: full-length mouse DHPR β1a subunit; recombinant or expressed in β-null myotubes” came in with a Kd of 4.9 ± 0.6 µM. Further, the V1/2 in experiment [4] (potential at which G = 1/2 Gmax, n = 22 / 21) stood at 14.7 ± 0.88 mV. For the same substance, the Vr in experiment [4] (reversal potential, n = 22 / 21) is 84.8 ± 0.35 mV. In experiment [4] (slope parameter, n = 22 / 21), this substance yielded a k of 6.0 ± 0.17 mV. Further, the Gmax in experiment [4] (β-null myotubes expressing the construct, external 10 mM CaCl2, n = 22 (Wt-β1a), n = 21 (β1a-RT loop)) turned out to be 453 ± 33.0 pS/pF. The substance further registered an EC50 in experiment [5] of 6680 ± 450 µM.
In the case of “β2a: mouse DHPR β2a (cardiac isoform) subunit, recombinant”, the “Kd for binding to α1s C” value in experiment [3] is given as “no measurable binding”.
